Data on one compound can be found in patent US20240238254A1, “PHARMACOLOGICAL INTERVENTION OF THE ARACHIDONIC ACID PATHWAY TO CURE AMYOTROPHIC LATERAL SCLEROSIS” (The Johns Hopkins University, priority 2021, published 2024).

Assay [1] concerns differentiating HB9::GFP C9ORF72 and SOD1^A4V ALS lines. It is filed as cell-based, human. Particulars: CA added to AA-treated sMN culture; dose dependent. On the procedure:
Cells were dissociated using Accutase after incubation for 20 min at 37° C. and suspended with buffer containing 40 μg/ml DNase I (Roche Applied Science). For GFP analysis, BD FACS Calibur (Becton Dickinson) and FlowJo software (Tree Star Inc.) were used. To purify GFP^+ populations for each reporter line, a MoFlo high-speed sorter (Dako Cytomation) in the Johns Hopkins School of Public Health Flow Cytometry Core Facility and a BD FACSJazz sorter in the Stem Cell Core Facility of Johns Hopkins Medicine (Institute for Cell Engineering) were used.
For Immunohistochemistry, E12.5 midbrain was dissected and fixed with 4% paraformaldehyde (PFA) overnight. After fixation, tissues were washed with PBS and incubated with 30% sucrose for cryosection as described previously^97. The following antibodies were used as a primary antibody: rabbit anti-TH (Pel-Freez Biologicals), mouse anti-Isl1 (DSHB) and rabbit anti-Phox2b (gift from Jean-Francois Brunet)^98. For Isl1 staining, a mouse on mouse kit (Vector Laboratory) was used. For immunocytochemistry, cells were fixed with 4% PFA and stained with mouse anti-ISL1 (DSHB), mouse anti-NKX6.1 (DSHB), rabbit anti-TUJ1 (BioLegend) and rabbit anti-PHOX2B (gift from Jean-Francois Brunet). For FACS analysis, cells were fixed with 4% PFA and stained with mouse anti-HB9 (DSHB) and mouse anti-ISL1 (DSHB) as described previously^99. For 7AAD analysis by FACS, staining was conducted based on commercial instruction (BD #559925). Appropriate Alexa Fluor 488, 568 and 647 (Life Technologies) labeled secondary antibodies were used with DAPI (Roche Applied Science) for nuclear staining. All images were visualized with fluorescence microscopy (Eclipse TE2000-E, Nikon).
SMN differentiation was performed as previously described^67. For general sMN culture media, neurobasal medium (Gibco) containing B27 (Gibco), N2 (Gibco), and 2 mM L-glutamine was used as a normal medium. For compound testing, neurobasal medium with N2 was used as a conditioned medium using caffeic acid (Sigma, C0625), R-Deprenyl hydrochloride (Sigma, M003), Ajamaline (MP Biomedicals, 4360-12-7), Creatine (Sigma, 1150320) and ISP-1 (Sigma, M1177), BW755C (Tocris, 105910), Nordihydroguaiaretic acid (Sigma, 74540), Apigenin (Fisher Scientific, 50908414), U-73122 (Thermo, 126810). For Arachidonic acid testing, Arachidonic acid (Cayman, 506-32-1) was treated in normal media. For mitomycin C treatment, 1 μg/ml of mitomycin C was treated in differentiating oMN or sMN cells for 1 hr at D17 and analyzed after 2 days (D19) by FACS. For fold change value, non-treated % of GFP^+ were considered as a control and fold change values were normalized upon % of GFP expression of non-treated cells by FACS. […]

The subject of assay [2] is SOD1^G93A mice. Put plainly: Mouse survival and efficacy evaluation (Exp 1: onset, survival, behavioral tests). It is filed as in vivo. The source says: Hb9::GFP and ISL1::GFP mice were described previously^107,108. All experiments used protocols approved by the Animal Care and Ethics Committees of the Gwangju Institute of Science and Technology (GIST) in accordance with the National Institutes of Health Guide for the Care and Use of Laboratory Animals. For efficacy assessment of the caffeic acid, B6.Cg-Tg(SOD1^G93A)1Gur/J mice (Jackson Laboratory, Bar Harbor, ME) was used after in vitro fertilization (Macrogen, Seoul, Korea) and all the protocol was approved by the Institutional Animal Care and Use Committees of Dong-A University.
Caffeic acid (30) mg/kg) dissolved in PBS containing 10% ethanol or vehicle (PBS containing 10% ethanol) were orally administered 5 days/week from 60 days to 120 days of age. Three independent experiments were performed to evaluate the efficacy of caffeic acid. A total of 24 mice in each group (female=12, male=12) were used for evaluation of survival and behavioral assessments (Exp 1), and the same number of mice were used for histologic analyses (Exps 2 and 3). In the Exp 1, mice were monitored for neurological disease progression according to guidelines for preclinical animal research in ALS/MND (Ludolph AC et al, 2010). The neurological score was followed as Score 0.5 as disease onset (first signs of tremor and hind-limb splay defects) and the end stage (Score 4) was determined as loss of righting reflex within 30s. Neurological scoring was monitored daily and mice at the end stage were euthanized. Kaplan-Meier curves was used to analyze age of onset and survival using Graphpad Prism7 (GraphPad Software, San Diego, CA). Motor coordination and muscle integrity were assessed weekly using a Rotarod apparatus and grip strength device (Panlab Harvard Apparatus, Barcelona, Spain). Tissue analyses were performed in the Exp 2 (n=14 for each group) and Exp 3 (n=10 for each group). They were anesthetized with […] isofluran at 16 wks (Exp 2) and 20 wks (Exp 3) of age then perfused with 4% paraformaldehyde in PBS. L4-L5 segments of spinal cord were serially cut with the cryostat into 20 μm sections then stained with 0.1% (w/v) cresyl violet stain solution. Motor neurons with larger than 25 μm of dimeter in Lamina IX of the ventral horn were counted using Image J software (National Institutes of Health, Bethesda, USA) program, and 10) sections per sample (n=10 for each group) were averaged. Activated astrocytes and microglia in the spinal cord were detected using anti-GFAP Ab and rabbit anti-Iba1 Ab (Cell Signaling Technology, Beverly, MA) for 10 sections per sample (n=10 for each group). The integrated density of fraction area in the ventral horn were measured using Image J software for quantification of activated astrocytes and microglia. Neuromuscular junction was analyzed in gastrocnemius muscle (30 μm) with anti-a-bungarotoxin Ab to label AChR and anti-neurofilament H/synapsin Ab (Cell Signaling Technology) to label axon terminals. The innervated pretzel structures merged with two fluorescence were counted.

`O=C(O)/C=C/c1ccc(O)c(O)c1` [caffeic acid, 3,4-dihydroxy benenearcrylic acid]: in assay [1], the “AA-induced decrease of percentages of HB9::GFP+ cells” value was “significantly reversed” and the “AA-induced increase of percentages of 7AAD+ cells” value was “significantly reversed”. Besides, in assay [2] (30 mg/kg orally), the grip strength result is recorded as “attenuated disease progression”. Moreover, the “disease onset (tremor and hind-limb splay defects)” value in assay [2] (30 mg/kg orally 5 days/week from 60 to 120 days of age, control 109.8±7.7 days) came to 118.8 ± 4.3 days. The “survival (loss of righting reflex within 30s)” value in assay [2] (30 mg/kg orally 5 days/week from 60 to 120 days of age, control 162.8±12.3 days) came to 171.0 ± 11.4 days. For the same compound, the body weight entry in assay [2] (30 mg/kg orally, monitored weekly) is given as “attenuated disease progression”. Further, the rotarod performance entry in assay [2] (30 mg/kg orally, reduction begins from 15 weeks of age) is on record as “significant slowdown of the reduction”.
